Holding throughout (experiment): TNS fluorescence displacement (ex […] nm, em […] nm)
Format in all cases: binding

The target of one assay is T1, Lc-LTP3 (Lens culinaris, UniProt A0AT30).
T1 construct: mature protein, 93 residues; expressed in E. coli BL21(DE3) as His8-TrxL fusion, tag cut off with CNBr; from soluble fraction; four disulfides; monomer and dimer on SDS-PAGE
The settings on record: protein 2.5 uM; 3 uM TNS, 65 uM stearic acid; 175 mM D-mannitol, 0.5 mM K2SO4, 0.5 mM CaCl2, 5 mM MES pH 7.0, 25 C; competition with TNS.

The target in another assay is T2, Lc-LTP1 (Lens culinaris, UniProt A0AT28).
T2 construct: mature protein, 93 residues; expressed in E. coli BL21(DE3) as His8-TrxL fusion, tag cut off with CNBr; four disulfides; monomer and dimer on SDS-PAGE
The settings on record: refolded protein 2.5 uM; 3 uM TNS, 65 uM stearic acid; 175 mM D-mannitol, 0.5 mM K2SO4, 0.5 mM CaCl2, 5 mM MES pH 7.0, 25 C; competition with TNS.

In another assay the target is T3, Lc-LTP2 (Lens culinaris, UniProt A0AT29).
T3 sequence (A0AT29 26-118): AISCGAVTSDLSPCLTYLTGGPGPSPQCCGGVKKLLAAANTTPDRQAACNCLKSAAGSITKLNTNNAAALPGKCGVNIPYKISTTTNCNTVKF
As to conditions: protein 2.5 uM; 3 uM TNS, 65 uM stearic acid; 175 mM D-mannitol, 0.5 mM K2SO4, 0.5 mM CaCl2, 5 mM MES pH 7.0, 25 C; competition with TNS.

Structures are written as SMILES.

T2 sequence (A0AT28 26-118): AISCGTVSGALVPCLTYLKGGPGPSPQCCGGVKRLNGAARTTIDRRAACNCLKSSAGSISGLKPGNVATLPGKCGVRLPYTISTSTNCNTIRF
T1 sequence (A0AT30 26-118): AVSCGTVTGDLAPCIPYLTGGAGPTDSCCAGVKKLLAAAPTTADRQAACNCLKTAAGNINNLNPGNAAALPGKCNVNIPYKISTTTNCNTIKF

On to `CCCCCCCCCCCCCCCCCC(=O)O` [stearic acid], for which the “% fluorescence intensity of the protein-TNS complex” value at Lc-LTP3, on Lc-LTP1 and on Lc-LTP2 was “all three isoforms possess the ability to bind fatty acids” each time.

The record behind these values is article PMC4610166, “Structural and Functional Characterization of Recombinant Isoforms of the Lentil Lipid Transfer Protein” (Acta Naturae, 2015).
